Source: patent publication US20240350512A1, “CYTOSKELETAL TENSION REGULATORS AND FAS LIGAND-COMBINATION COMPOSITIONS AND METHODS OF TREATMENT USING THE SAME” (Yale University, priority 2021, published 2024)

Legend:
[1] = test system: surface Fas receptors of cancer cells (U87, A549, HepG2, PC3, and SUM159 cells); assay: Immunostaining of surface Fas receptors on cancer cells; assay type: cell-based; conditions: 2 hours; 40 μM Fasudil, 10 μM Blebbistatin or 20 μM GW5074; range over U87, A549, HepG2, PC3, SUM159
Experimental: (§1) FIGS. 2A-2E: Fas receptor expression on the cancer cell surface. FIG. 2A: Addition of either Fasudil, Blebbistatin, or GW5074 to the cell culture medium for 2 hours increased the Fas receptor staining on the cancer cells, but not on HUVECs. […] Fold increase of Fas staining density as response to treatment with FIG. 2C: Fasudil, FIG. 2D: Blebbisatin, and FIG. 2E: GW5074.
In the present study, the effect of the ROCK inhibitor Fasudil, Myosin-II inhibitor Blebbistatin, or the Raf-1 inhibitor GW5074 on Fas receptor translocation on surface of U87, A549, HepG2, PC3, and SUM159 cells was evaluated. The effect of these drugs on cell viability when used alone or in combination with exogenous, recombinant Fas ligand was analyzed. Next, the effects of Fasudil and Fas ligand combination on glioblastoma growth and on viability of non-cancerous cells in engineered brain organoids was investigated. Finally, the in vivo efficacy of the Fasudil-Fas ligand combination on preventing tumor growth in a xenograft U87 tumor model in nude mice was tested.
(§2) It was speculated that the active Raf-1, due to increased intracellular tension in cancer cell, can cause lack of Fas receptors on the cell surface and that either inhibition of Raf-1 or reduction of mechanical tension in the cytoskeleton can restore the Fas receptors on cell surface. To test this theory, U87 (glioblastoma), A549 (non-small cell lung cancer, resistant to apoptosis, FAS ligand alone increases proliferation), HepG2 (liver cancer), PC3 (prostate cancer), and SUM159 (triple negative breast cancer) cells were treated either with 20 μM Raf-1 inhibitor GW5074, 40 μM ROCK inhibitor Fasudil, or 10 μM myosin inhibitor Blebbistatin for 2 hours.

Fas receptors on HUVECs = assay: Immunostaining of surface Fas receptors on HUVECs; assay type: cell-based; conditions: 2 hours; regardless of the treatment
Experimental: as §1, §2

U87 cells = assay type: cell-based; conditions: for cell viability in U87 cells, drug combined with Fas ligand: Fas ligand 400 ng/mL with 40 μM Fasudil, 10 μM Blebbistatin or 20 μM GW5074
Source text: FIGS. 3A-3E: Fortified Fas-mediated apoptosis in cancer cells. […] FIG. 3B: representative light microscopy images of U87 cells showing the effect of Fasudil-Fas ligand combination. For the other cancer cell types see FIG. 7. Fasudil-Fas ligand combination decreased the viability of A549, HepG2, SUM159, PC3, and BT549 cells synergistically (FIGS. 3C-3D).
(§3) After showing that Fas receptor expression on the cell surface can be increased with different ques targeting cytoskeletal tension, the Fas-mediated apoptosis triggered by the exogenous Fas ligand when combined with Fasudil, Blebbistain, or GW5074 was studied. The cell viability by quantifying the ATP level present in the cell culture medium after 48 hours of treatment was assessed.

U87 xenograft tumor = U87 xenograft tumor model in nude mice; assay type: in vivo; conditions: for average tumor size: one month after tumor initiation, intraperitoneal injection twice a week for four weeks; for median survival probability: terminal point 1000 mm^3
Experimental: Further, the anti-tumor efficacies of Fas ligand and Fasudil combination using a U87 xenograft tumor model in nude mice were evaluated. Fas ligand and Fasudil were administrated by intraperitoneal injection when the subcutaneous tumor grew to palpable size >50 mm^3 twice a week for four weeks. The mice were primed with either Fasudil or saline 24 hours before the injection of Fasudil and Fas ligand together. Only Fasudil, only Fas ligand, and only saline injections were made in the control groups. 7-10 mice with tumor volumes ranging from 50-200 mm^3 were randomly assigned to each treatment arm. Terminal point for the tumor growth was determined as 1000 mm^3.

HepG2 cells = assay type: cell-based
Experimental: as §3

A549 cells = assay type: cell-based
Experimental: as §3

BT549 cells = assay type: cell-based
Experimental: as §3

SUM159 cells = assay type: cell-based
Experimental: as §3

PC3 cells = assay type: cell-based
Experimental: as §3

| Molecule | increase of immunostaining of surface Fas receptors of cancer cells [1] | Fas staining of HUVECs (Fas receptors on HUVECs) | cell viability in U87 cells, drug combined with Fas ligand (U87 cells) | average tumor size (U87 xenograft tumor) [mm3] | median survival probability (U87 xenograft tumor) [%] | cell viability (HepG2 cells) | cell viability (A549 cells) | cell viability (BT549 cells) | cell viability (SUM159 cells) | cell viability (PC3 cells) | cell viability (U87 cells) |
| --- | --- | --- | --- | --- | --- | --- | --- | --- | --- | --- | --- |
| Cc1ccc2c(c1)C(=O)C1(O)CCN(c3ccccc3)C1=N2 (stereo not shown) [Blebbistatin, blebbistatin] | 1.76-2.15 folds | negligible | decreased cell viability significantly |  |  |  |  |  |  |  |  |
| O=C1Nc2ccc(I)cc2/C1=C/c1cc(Br)c(O)c(Br)c1 [GW5074] | 1.62-2.30 folds | negligible | decreased cell viability significantly |  |  |  |  |  |  |  |  |
| O=S(=O)(c1cccc2cnccc12)N1CCCNCC1 [Fasudil, fasudil] | 2.12-3.28 folds | negligible | decreased cell viability significantly | 584.4±113.8 | 28 |  |  |  |  |  |  |
| Fas ligand: human recombinant Fas ligand, protein having the amino acid sequence SEQ ID NO: 1 (protein, listed as Homo sapiens) MQQPFNYPYPQIYWVDSSASSPWAPPGTVLPCPTSVPRRPGQRRPPPPPPPPPLPPPPPPPPLPPLPLPPLKKRGNHSTGLCLLVMFFMVLVALVGLGLGMFQLFHLQKELAELRESTSQMHTASSLEKQIGHPSPPPEKKELRKVAHLTGKSNSRSMPLEWEDTYGIVLLSGVKYKKGGLVINETGLYFVYSKVYFRGQSCNNLPLSHKVYMRNSKYPQDLVMMEGKMMSYCTTGQMWARSSYLGAVFNLTSADHLYVNVSELSLVNFEESQTFFGLYK |  |  |  | 602.2±195.7 | 27 | 44.6 % of the control | 67.8 % of the control | 58.0 % of the control | 59.9 % of the control | 80.2 % of the control | 55.6 % of the control |
